Publication PMC7450057, “Enhancing intracellular accumulation and target engagement of PROTACs with reversible covalent chemistry” (Nature Communications, 2020)
Values joined by “and” are separate entries in the source; they are usually repeats but may differ in a detail not shown here. Equal values may be shown once.

Experiments:
MOLM-14 cells = test: AlamarBlue cell viability assay, MOLM-14; settings: for Cell viability, MOML-14: Supplementary Figure 7, replicates
Procedure: The IC50 was calculated using GraphPad Prism software with a four-parameter dose-response curve fit.

BTK [1] = target: T1, BTK (Homo sapiens, UniProt Q06187); test: BTK degradation in MOLM-14 cells (western blot); type: cell-based; set-up: endogenous in cells; host or cells: MOLM-14; settings: MOLM-14 cells, 200 nM, 24 h incubation
NanoLuc-CRBN fusion = target: T2, NanoLuc-CRBN fusion (Homo sapiens, UniProt Q96SW2); test: NanoBRET CRBN in-cell target engagement assay; type: cell-based; settings: for NanoBRET(%): Figure 3h, replicates; for IC50: HEK-293 cells, CRBN tracer 0.5 µM, triplicates, read-out: CRBN target engagement IC50,TE
T2 construct: host or cells: HEK 293T/17
Procedure: The target engagement assay for BTK or CRBN was from Promega (BTK kit, Cat. No. N2500; CRBN kit, Cat. No. CS1810C136) and was performed according to the manufacture’s instruction with some modifications. […] After 2 h incubation, the 3X Nano-Glo® Substrate with NanoLuc® extracellular inhibitor were added to cells and developed for 3 min at room temperature. BRET signals were collected using a BioTek SYNERGY H1 microplate reader equipped with a 450/80-nm BP filter for donor emission and a 610-nm LP filter for acceptor emission. BRET Ratio was calculated with the equation: [(Acceptor sample/Donor sample)–(Acceptor no tracer control/Donor no tracer control)] × 1000. The IC50 of the compound against its BTK or CRBN tracer was calculated using GraphPad Prism software.

BTK [2] = target: T1, BTK; test: In vitro BTK kinase assay (PhosphoSens); type: biochemical; set-up: purchased SignalChem B10-10H-10
Procedure: BTK kinase activity inhibition IC50 was measured by PhosphoSens® Kinase Assay Kit (Assay Quant Technologies Inc., Cat.# CSKS-AQT0101K). […] Active recombinant BTK was purchased from SignalChem (Cat.# B10-10H-10). All the drugs (3 warhead control and 4 PROTACs) were dissolved in DMSO (10 mM). […] To calculate the IC50, subtract the background fluorescence determined with the “no kinase” control for each time point from the total signal to obtain corrected Relative Fluorescence Units (RFU) values. Plot the corrected RFU vs. Time for each inhibitor concentration and determine the initial reaction rates (slope of the linear portion) for each progress curve for each inhibitor concentration. Then plot velocity (RFU corrected/minute) vs [inhibitor] and determine the IC50 using a 4-parameter logistic fit.

T2 sequence (Q96SW2 whole entry, the tested form may be a part): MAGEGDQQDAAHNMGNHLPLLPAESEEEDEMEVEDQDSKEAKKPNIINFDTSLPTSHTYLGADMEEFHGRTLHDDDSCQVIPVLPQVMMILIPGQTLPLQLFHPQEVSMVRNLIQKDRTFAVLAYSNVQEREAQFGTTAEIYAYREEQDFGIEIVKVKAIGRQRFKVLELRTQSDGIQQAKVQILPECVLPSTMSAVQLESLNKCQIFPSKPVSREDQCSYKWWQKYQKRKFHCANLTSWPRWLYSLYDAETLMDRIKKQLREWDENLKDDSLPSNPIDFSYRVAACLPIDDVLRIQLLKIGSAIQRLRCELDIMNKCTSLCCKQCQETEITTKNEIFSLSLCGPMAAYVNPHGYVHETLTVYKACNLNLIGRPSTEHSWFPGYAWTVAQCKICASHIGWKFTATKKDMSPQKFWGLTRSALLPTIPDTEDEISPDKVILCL
T2 sequence (Q16531 whole entry partner, the tested form may be a part): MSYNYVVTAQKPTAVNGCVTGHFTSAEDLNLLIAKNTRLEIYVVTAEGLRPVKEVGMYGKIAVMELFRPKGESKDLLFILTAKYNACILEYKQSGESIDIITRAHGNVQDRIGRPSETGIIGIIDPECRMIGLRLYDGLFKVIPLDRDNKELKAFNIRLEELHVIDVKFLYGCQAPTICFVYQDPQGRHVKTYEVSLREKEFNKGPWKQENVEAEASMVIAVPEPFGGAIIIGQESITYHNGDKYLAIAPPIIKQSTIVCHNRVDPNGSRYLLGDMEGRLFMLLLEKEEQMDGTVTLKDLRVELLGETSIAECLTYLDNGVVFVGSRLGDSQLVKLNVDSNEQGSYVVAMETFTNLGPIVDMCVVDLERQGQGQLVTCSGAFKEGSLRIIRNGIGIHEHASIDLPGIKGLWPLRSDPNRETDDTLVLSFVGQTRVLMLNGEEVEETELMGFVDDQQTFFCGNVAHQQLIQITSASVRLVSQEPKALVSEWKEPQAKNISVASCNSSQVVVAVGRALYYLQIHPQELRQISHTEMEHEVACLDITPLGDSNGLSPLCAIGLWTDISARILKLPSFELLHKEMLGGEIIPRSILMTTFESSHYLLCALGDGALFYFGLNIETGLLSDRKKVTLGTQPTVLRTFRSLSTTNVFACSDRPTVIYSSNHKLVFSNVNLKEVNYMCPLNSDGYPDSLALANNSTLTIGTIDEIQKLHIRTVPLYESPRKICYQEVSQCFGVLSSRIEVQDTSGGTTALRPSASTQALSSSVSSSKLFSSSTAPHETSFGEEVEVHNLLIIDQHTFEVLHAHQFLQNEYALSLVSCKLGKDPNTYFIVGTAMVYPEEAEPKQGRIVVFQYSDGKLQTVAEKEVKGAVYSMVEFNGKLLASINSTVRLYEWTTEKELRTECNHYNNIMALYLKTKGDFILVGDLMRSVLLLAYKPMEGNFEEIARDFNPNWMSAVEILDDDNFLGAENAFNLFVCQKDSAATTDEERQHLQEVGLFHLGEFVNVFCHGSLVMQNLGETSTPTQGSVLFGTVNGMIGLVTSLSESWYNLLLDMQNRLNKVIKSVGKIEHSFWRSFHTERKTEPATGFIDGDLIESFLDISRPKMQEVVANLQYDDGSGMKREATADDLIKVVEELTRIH
T1 sequence (Q06187 whole entry, the tested form may be a part): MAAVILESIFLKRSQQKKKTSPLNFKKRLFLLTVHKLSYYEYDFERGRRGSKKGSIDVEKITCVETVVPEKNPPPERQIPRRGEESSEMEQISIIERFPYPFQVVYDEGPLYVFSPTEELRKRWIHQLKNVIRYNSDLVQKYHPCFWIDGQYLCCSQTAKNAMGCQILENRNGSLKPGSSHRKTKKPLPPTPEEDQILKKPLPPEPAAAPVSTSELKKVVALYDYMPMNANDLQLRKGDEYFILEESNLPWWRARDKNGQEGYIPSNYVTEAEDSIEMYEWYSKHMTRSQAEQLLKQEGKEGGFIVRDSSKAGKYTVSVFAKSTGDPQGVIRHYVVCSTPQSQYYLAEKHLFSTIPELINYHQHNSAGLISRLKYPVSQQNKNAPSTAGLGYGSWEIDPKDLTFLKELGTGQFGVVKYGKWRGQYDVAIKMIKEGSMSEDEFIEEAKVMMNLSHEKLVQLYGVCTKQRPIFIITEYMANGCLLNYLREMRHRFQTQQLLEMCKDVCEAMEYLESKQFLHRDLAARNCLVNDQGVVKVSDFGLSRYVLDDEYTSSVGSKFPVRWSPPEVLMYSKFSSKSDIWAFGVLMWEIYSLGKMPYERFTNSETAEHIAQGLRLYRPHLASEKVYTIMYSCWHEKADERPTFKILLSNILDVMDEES

Structure (SMILES)	Cell viability, MOML-14 (MOLM-14 cells; drug concentration 1.00E-05 M)	Cell viability, MOML-14 (MOLM-14 cells; drug concentration 1.60E-08 M)	Cell viability, MOML-14 (MOLM-14 cells; drug concentration 2.00E-06 M)	Cell viability, MOML-14 (MOLM-14 cells; drug concentration 3.20E-09 M)	Cell viability, MOML-14 (MOLM-14 cells; drug concentration 4.00E-07 M)	Cell viability, MOML-14 (MOLM-14 cells; drug concentration 6.40E-10 M)	Cell viability, MOML-14 (MOLM-14 cells; drug concentration 8.00E-08 M)	Degradation at 200 nM (percentage of BTK degradation) (BTK [1])	NanoBRET(%) (NanoLuc-CRBN fusion; drug concentration 1.00E-05 M)	NanoBRET(%) (NanoLuc-CRBN fusion; drug concentration 1.60E-08 M)	NanoBRET(%) (NanoLuc-CRBN fusion; drug concentration 2.00E-06 M)	NanoBRET(%) (NanoLuc-CRBN fusion; drug concentration 3.20E-09 M)	NanoBRET(%) (NanoLuc-CRBN fusion; drug concentration 4.00E-07 M)	NanoBRET(%) (NanoLuc-CRBN fusion; drug concentration 8.00E-08 M)	IC50 (NanoLuc-CRBN fusion)	further results
CN(CCCCNc1cccc2c1C(=O)N(C1CCC(=O)NC1=O)C2=O)C(C)(C)C=C(C#N)C(=O)N1CCCC(n2nc(-c3ccc(Oc4ccccc4)cc3)c3c(N)ncnc32)C1 (centres unmarked) [RC-7]	14.5806 and 18.8166 and 13.8981 and 12.7996 and 18.6335	91.6861 and 127.114 and 140.005 and 143.301 and 145.198	29.6105 and 35.3113 and 28.8948 and 32.5316 and 40.9787	108.289 and 119.541 and 122.853 and 118.675 and 131.225	92.6182 and 112.666 and 109.446 and 93.7916 and 129.078	104.877 and 113.673 and 115.995 and 128.978 and 91.4031	94.8735 and 136.951 and 131.242 and 108.447 and 144.149	6%								
CCCNc1nc(Nc2ccc(C#N)cc2)ncc1C#CCCCNC(=O)[C@H](C)N(C)C(=O)CCCN(C)CCCNC(=O)CCNc1cccc2c1C(=O)N(C1CCC(=O)NC1=O)C2=O (some centres unmarked) [RNC-FLT3]									48.4243% and 48.1518% and 48.288%	120.01% and 113.24% and 126.78%	97.5318% and 86.9073% and 76.2828%	100.446% and 106.017%	98.4352% and 83.544% and 119.955%	117.071% and 115.752% and 114.432%	10100 nM	
CN(CCOCCNC(=O)CNc1cccc2c1C(=O)N(C1CCC(=O)NC1=O)C2=O)C(C)(C)C=C(C#N)C(=O)N1CCC[C@@H](n2nc(-c3ccc(Oc4ccccc4)cc3)c3c(N)ncnc32)C1 (some centres unmarked) [RC-3]	6.131 and 2.152 and 5.745 and 1.563 and 5.644	83.11 and 86.5611 and 70.0365 and 75.0101 and 88.6317	14.9208 and 11.551 and 11.6931 and 9.785 and 11.754	76.8575 and 93.7881 and 76.4921 and 85.0995 and 82.1762	53.106 and 44.4377 and 39.7686 and 41.149 and 48.4166	89.9919 and 78.9687 and 69.3463 and 82.7852 and 87.4746	71.5794 and 85.3634 and 65.8344 and 81.7296 and 79.4965	39%								
CCC(=O)N1CCCC(n2nc(-c3ccc(Oc4ccccc4)cc3)c3c(N)ncnc32)C1 (centres unmarked) [RNC-Ctrl]	9.88 and 4.549 and 8.014 and 2.825 and 3.518	95.1882 and 83.3008 and 72.3018 and 73.7944 and 64.519	23.8281 and 18.1065 and 24.6633 and 17.9289 and 14.3751	99.7903 and 102.278 and 76.2998 and 63.1686 and 63.4529	54.0886 and 58.7263 and 56.6474 and 49.4687 and 44.0492	93.8377 and 115.463 and 71.822 and 77.5792 and 66.4558	94.9216 and 79.4804 and 66.9 and 56.8073 and 62.3334									IC50 (BTK [2]): 13.6 nM; activity at 12.8 pM (BTK [2]; Supplementary Figure 5, drug concentration 12.8 pM, replicates, read-out: Inhibition(%)): 94.1%; activity at 64 pM (BTK [2]; Supplementary Figure 5, drug concentration 64 pM, replicates, read-out: Inhibition(%)): 94%; activity at 0.00032 µM (BTK [2]; Supplementary Figure 5, drug concentration 320 pM, replicates, read-out: Inhibition(%)): 92.7%; activity at 0.0016 µM (BTK [2]; Supplementary Figure 5, drug concentration 1600 pM, replicates, read-out: Inhibition(%)): 83.1%; activity at 0.008 µM (BTK [2]; Supplementary Figure 5, drug concentration 8000 pM, replicates, read-out: Inhibition(%)): 62.4%; activity at 0.04 µM (BTK [2]; Supplementary Figure 5, drug concentration 40000 pM, replicates, read-out: Inhibition(%)): 29.6%; activity at 0.2 µM (BTK [2]; Supplementary Figure 5, drug concentration 200000 pM, replicates, read-out: Inhibition(%)): 9.18%; activity at 1 µM (BTK [2]; Supplementary Figure 5, drug concentration 1000000 pM, replicates, read-out: Inhibition(%)): 3.99%; reduction of BTK inhibition activity compared with IRC-Ctrl (BTK [2]; ratio of IC50 values): 45 folds; activity at 2.56 pM (BTK [2]; read-out: Inhibition(%), Supplementary Figure 5, drug concentration 2.56 pM, replicates): 110%; IC50 (MOLM-14 cells; Homo sapiens, MOLM-14, 72 h, read-out: Cell viability IC50): 420 nM
CCCNc1nc(Nc2ccc(C#N)cc2)ncc1C#CCCCNC(=O)[C@H](C)N(C)C(=O)/C=C/CN(C)CCCNC(=O)CCNc1cccc2c1C(=O)N(C1CCC(=O)NC1=O)C2=O (some centres unmarked) [IRC-FLT3]									33.2279% and 26.4905% and 27.0048%	92.7988% and 108.391% and 111.382%	38.4699% and 38.0091% and 38.2395%	129.579% and 139.696% and 92.9737%	76.4349% and 76.1877% and 65.5306%	100.627% and 103.984% and 84.3671%	1500 nM	
CN(CCCNc1cccc2c1C(=O)N(C1CCC(=O)NC1=O)C2=O)C(C)(C)C=C(C#N)C(=O)N1CCCC(n2nc(-c3ccc(Oc4ccccc4)cc3)c3c(N)ncnc32)C1 (centres unmarked) [RC-8]	17.5563 and 16.7069 and 17.8914 and 20.4239 and 19.1771	123.954 and 125.216 and 128.45 and 118.008 and 115.826	51.2117 and 59.1288 and 59.5652 and 52.2481 and 61.4899	109.039 and 133.593 and 120.962 and 127.936 and 128.38	97.748 and 111.696 and 131.871 and 99.439 and 92.5349	132.113 and 115.156 and 99.1818 and 117.969 and 130.757	116.239 and 126.011 and 117.112 and 106.966 and 122.419	15%								
CCCNc1nc(Nc2ccc(C#N)cc2)ncc1C#CCCCNC(=O)[C@H](C)N(C)C(=O)/C(C#N)=C/C(C)(C)N(C)CCCNC(=O)CCNc1cccc2c1C(=O)N(C1CCC(=O)NC1=O)C2=O (some centres unmarked) [RC-FLT3]									35.9991% and 14.2807% and 25.1399%	91.6727% and 89.8569% and 90.7648%	22.2416% and 18.9083% and 40.0723%	100.385% and 96.7751% and 101.754%	38.0473% and 34.6413% and 45.5817%	64.8551% and 66.5991% and 71.8605%	300 nM	
CN(CCOCCOCCNC(=O)CNc1cccc2c1C(=O)N(C1CCC(=O)NC1=O)C2=O)C(C)(C)C=C(C#N)C(=O)N1CCC[C@@H](n2nc(-c3ccc(Oc4ccccc4)cc3)c3c(N)ncnc32)C1 (some centres unmarked) [RC-4]	7.995 and 4.587 and 6.948 and 0.6662 and 4.873	106.917 and 98.9797 and 102.749 and 88.7772 and 88.111	23.0509 and 25.7918 and 22.8415 and 19.1107 and 18.6919	98.1803 and 95.5954 and 92.3367 and 95.7248 and 84.8751	68.7719 and 62.8902 and 62.3953 and 62.1669 and 56.6088	92.8506 and 90.1858 and 94.6399 and 97.7806 and 77.071	89.7861 and 80.8588 and 84.9703 and 89.1389 and 65.2315	43%								
CN(CCCCNC(=O)CNc1cccc2c1C(=O)N(C1CCC(=O)NC1=O)C2=O)C(C)(C)C=C(C#N)C(=O)N1CCC[C@@H](n2nc(-c3ccc(Oc4ccccc4)cc3)c3c(N)ncnc32)C1 (some centres unmarked) [RC-2]	1.939 (2×) and 0.9797 and 1.263 and 1.918	109.825 and 84.2418 and 85.8907 and 118.518 and 93.8319	9.2521 and 10.1835 and 11.1012 and 14.0541 and 10.0041	91.1619 and 67.352 and 96.5641 and 78.9913 and 73.6029	67.2416 and 67.0208 and 59.4522 and 60.425 and 58.2103	98.0682 and 96.9022 and 102.332 and 130.626 and 104.719	92.8384 and 69.3183 and 103.532 and 88.8644 and 89.4508	49%								
